Data as given in patent US20240050449A1, “Use of Acetyltanshinone IIA in Preparation of Medicament for Treating Lung Cancer and Medicament for Treating Lung Cancer” (UNIVERSITY OF MACAU, priority 2022, published 2024).
“Also recorded” adds a separate entry of the source.

Columns and labels:
[1] = system: protein levels in A549-derived xenograft tumor tissue; experiment: Western blot of A549-derived xenograft tumor tissue; assay type: in vivo, nude mice; settings: after ATA treatment, 25 mg/kg
Experimental: Cells were washed once with PBS and frozen in RIPA lysis buffer containing protease and phosphatase inhibitors (Sigma-Aldrich) for 30 min. After sonication and centrifugation, the total protein concentration was determined by protein assay using Bio-Rad concentrated dye reagent (Bio-Rad). Equal amounts of protein (25-50 mg) from each sample were separated by SDS-PAGE and electrotransferred to nitrocellulose membranes (GE Healthcare). Detection was performed on the membrane with a 1:1000 dilution of specific primary antibody followed by incubation with a 1:2000 dilution of the HRP conjugated secondary antibody. Finally, immunoreactivity is detected with a chemiluminescent substrate (Clarity Western ECL substrate; Bio-Rad). EGFR (#4267S), MET (#8198S), p-Akt (#9271L), akt (#9272S), p-mTOR (#5536S), mTOR (#2983S), p-p70S6K (#9234S), p70S6K (#2708S), p-S6RP (#4857S), S6RP (#2217S), p-4E-BP1 (#9455S) antibodies. 4E-BP1 (#9644S), p53 (#2527S), p21 waf1/Cip1 (#2947S), survivin (#2808S), cyclin B1 (#12231S), cyclin D3 (#2936S) and GAPDH (#2118S) were purchased from Cell Signaling Technology. Aurora A (#ab13824) and PLK1 (#ab189139) antibodies were from Abcam.
EGFR, MET, p-p70S6K, p70S6K, p-S6RP, S6RP, p21, AURKA, PLK1, and survivin protein levels were detected by Western blot analysis. Immunoblot samples were from two independent tumors per group.

[2] = system: A549 cell-derived xenograft tumors; experiment: Mouse xenograft study; assay type: in vivo, nude mice; settings: 25 mg/kg intraperitoneally every 3 days, day 31
Experimental: (§1) Cell line xenograft experiments were performed in 6-week-old female nude mice, 4×10^6 A549 cells were mixed 1:1 with matrigel-basement membrane matrix (Corning) and injected subcutaneously into nude mice. Tumors were allowed to grow to around […] and mice were randomly selected to receive treatment with ATA (25 mg/kg) or Erlotinib (25 mg/kg) intraperitoneally every 3 days for 31 days. ATA was formulated with 25% ethanol, 60% PEG300 (Sigma-Aldrich), and 15% Tween 80 (Sigma-Aldrich). Erlotinib was formulated in 5% DMSO, 30% PEG300, 5% Tween 80 and 60% H2O. Mouse body weight and tumor volume were measured every 3 days by a scale and caliper. Tumor volume (mm^3) was calculated using the formula. π/6×length (mm)×[width (mm)]^2. At least 6 mice in the control and treatment groups were evaluated during the study. All mice were sacrificed after 31 days of drug treatment, tumors were collected, and tumor weights were recorded. All animal studies were conducted in accordance with the requirements of the Animal Research Ethics Committee of Macao University and in compliance with all relevant ethical requirements.
(§2) To determine if ATA could also produce the same effect in vivo, this example injected A549 cells subcutaneously into nude mice to form tumor xenografts. Mice were randomly assigned to three groups. When the size of each tumor increased to a volume of approximately 100 mm^3, mice were injected intraperitoneally with vehicle control, ATA (25 mg/kg), or Erlotinib (25 mg/kg) every 3 days for 31 days. The tumor size and body weight of each mouse were measured every 3 days until the end of the animal experiment on day 31.

[3] = system: H1650 cells; experiment: MTT cell viability assay, H1650 cells; assay type: cell-based
Experimental: (§3) Cells were seeded at a density of 3×10^3 per well in 96-well plates, allowed to attach overnight, and treated with various concentrations of agent. After 72 h of treatment, 10 μL of MTT solution (5 mg/mL) was added to each well and cultured in the plate for 4 h. The crystallized formazan was dissolved in 100 μL of 10% (w/v) SDS and 0.01 mol/L HCl solution for 24 h, and then the value was read by spectrophotometry at 595 nm using a microplate reader.

[4] = system: drug-resistant NSCLC cells (A549, H358, H1975, H1650); experiment: MTT assay, summary over all four cell lines; assay type: cell-based
Experimental: as §3

[5] = Body weight, deaths and toxicity in the xenograft study; settings: 25 mg/kg intraperitoneally every 3 days for 31 days
Experimental: as §1, §2

[6] = system: p70S6K, AURKA, MET, S6RP and EGFR protein levels; experiment: Western blot time course of protein reduction in A549 and H1650 cells; assay type: cell-based; settings: 2 μM
Experimental: Cells were washed once with PBS and frozen in RIPA lysis buffer containing protease and phosphatase inhibitors (Sigma-Aldrich) for 30 min. After sonication and centrifugation, the total protein concentration was determined by protein assay using Bio-Rad concentrated dye reagent (Bio-Rad). Equal amounts of protein ([…]) from each sample were separated by SDS-PAGE and electrotransferred to nitrocellulose membranes (GE Healthcare). Detection was performed on the membrane with a 1:1000 dilution of specific primary antibody followed by incubation with a 1:2000 dilution of the HRP conjugated secondary antibody. Finally, immunoreactivity is detected with a chemiluminescent substrate (Clarity Western ECL substrate; Bio-Rad). EGFR (#4267S), MET (#8198S), p-Akt (#9271L), akt (#9272S), p-mTOR (#5536S), mTOR (#2983S), p-p70S6K (#9234S), p70S6K (#2708S), p-S6RP (#4857S), S6RP (#2217S), p-4E-BP1 (#9455S) antibodies. 4E-BP1 (#9644S), p53 (#2527S), p21 waf1/Cip1 (#2947S), survivin (#2808S), cyclin B1 (#12231S), cyclin D3 (#2936S) and GAPDH (#2118S) were purchased from Cell Signaling Technology. Aurora A (#ab13824) and PLK1 (#ab189139) antibodies were from Abcam.
In FIGS. 7, A549 and H1650 cells were treated with ATA (2 μM) for 6, 12, 24, 36, and 48 h, and the protein levels of p70S6K, AURKA, MET, S6RP, and EGFR at each time point were determined by Western blot analysis as shown in (A), and the quantified protein levels are shown in (B). […] (D) is protein levels of p70S6K, p-p70S6K, S6RP, p-S6RP, p21, cyclin D3, AURKA, PLK1, cyclin B1, survivin, EGFR, and MET determined by Western blot analysis for A549 and H1650 cells treated with 10 nM p70S6K siRNA and siRNA negative control for 48 h. (E) is cell viability measured by MTT test for A549 and H1650 cells treated with 10 nM p70S6K siRNA and the negative control siRNA for 48 h. ****P<0.0001 was based on a one-way analysis of variance followed by Tukey's multiple comparison test. (F) It is protein levels of p21, cyclin D3, AURKA, PLK1, cyclin B1, survivin, EGFR, and MET determined by Western blot analysis for A549 and H1650 cells treated with LY294002 (2 μM), PF-4708671 (2 μM), rapamycin (2 μM) and ATA (2 μM) for 48 h. (G) is expression levels of EGFR, MET, p-p70S6K, p70S6K, p-S6RP, S6RP, p21, cyclin D3, AURKA, PLK1, cyclin B1 and survivin in fibroblast HDF, A549 and H1650 cells determined by Western blot analysis, respectively. Statistical data are expressed as the mean SD of three independent experiments.

[7] = system: all four drug-resistant cell lines (A549, H358, H1975, H1650); experiment: Colony formation, all four drug-resistant cell lines; assay type: cell-based; settings: 1 μM, 10 days
Experimental: Cells were seeded at a density of 1×10^3 per well in 6-well plates and cultured for 24 h. The cells were treated with medicament or DMSO for 10 days, after which the cells were washed once with 1×PBS, fixed with 4% paraformaldehyde for 20 min, and stained with 0.1% crystal violet for 15 min. The stained cells in each well were imaged and the number of colonies in each well was quantified using ImageJ software.

CC(=O)Oc1c(OC(C)=O)c2c(C)coc2c2ccc3c(c12)CCCC3(C)C [ATA, acetyltanshinone IIA]
increase of p21 protein levels in xenograft tumor tissue [1]: more than 2 fold | protein levels of EGFR, MET, p-p70S6K, p70S6K, p-S6RP, AURKA, PLK1 and survivin in xenograft tumor tissue [1]: greatly reduced | reduction of tumor size compared to the control group [2]: 72.1% | reduction of tumor weight [2]: 77.4% | IC50 ratio of Erlotinib/ATA [3]: 17.3 | growth inhibition compared with other agents ([3]; ATA 2 μM, 72 h, MTT): significantly higher than all three inhibitors; also recorded: greater growth inhibition than combination therapy with Erlotinib and MLN8237 | IC50 ([3]; MTT, 72 h): 1280 ± 290 nM | IC50 ([4]; A549, H358, H1975, H1650, MTT, 72 h, read-out: IC50 values, range over the four cell lines): 1300 to 1800 nM | IC50 of ATA lower than that of Erlotinib ([4]; four cell lines): 6-17 fold | deaths during the treatment period [5]: no mice died | toxicity in nude mice [5]: no significant toxicity | weight of nude mice compared between groups [5]: no difference | time at which AURKA protein decreased [6]: 12 h | time at which EGFR protein decreased [6]: 48 to 72 h | time at which MET protein decreased [6]: 24 h | time at which S6RP protein decreased [6]: 36 h | time at which p70S6K protein decreased [6]: 6 h | inhibition of colony formation compared with Erlotinib and Osimertinib [7]: much more effectively than Erlotinib and Osimertinib
